Measured values from the supplement of paper PMC10307832.

Experiments:
Assay in all cases: relative viability (nuclei count vs DMSO), 5 days (fraction); higher = more cells survive
[1] = compound: CN(c1ncccc1CNc1nc(Nc2ccc3c(c2)CC(=O)N3)ncc1C(F)(F)F)S(C)(=O)=O + CS(=O)(=O)N1CCN(Cc2cc3nc(-c4cccc5[nH]ncc45)nc(N4CCOCC4)c3s2)CC1 [Pictilisib] (partner 1 µM)
Procedure, shortened: (§1)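 Medians of duplicate plates are given as relative viability. That measure is the nuclei count in treated wells divided by the count in vehicle wells. Counts were taken on 4× images of lung cancer cell lines in 1536-well plates, 5 days after pin-tool dosing the day after seeding with one drug alone or a fixed anchor-drug dose plus five library-drug doses (not always all listed) in √10 steps.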

[2] = compound: CN(c1ncccc1CNc1nc(Nc2ccc3c(c2)CC(=O)N3)ncc1C(F)(F)F)S(C)(=O)=O + COc1cc2c(Oc3ccc(NC(=O)C4(C(=O)Nc5ccc(F)cc5)CC4)cc3F)ccnc2cc1OCCCN1CCOCC1 [Foretinib] (partner 0.25 µM)
Procedure, shortened: as §1

[3] = compound: CN(c1ncccc1CNc1nc(Nc2ccc3c(c2)CC(=O)N3)ncc1C(F)(F)F)S(C)(=O)=O + CC(=O)c1c(C)c2cnc(Nc3ccc(N4CCNCC4)cn3)nc2n(C2CCCC2)c1=O [Palbociclib] (partner 0.5 µM)
Procedure, shortened: as §1

[4] = compound: CN(c1ncccc1CNc1nc(Nc2ccc3c(c2)CC(=O)N3)ncc1C(F)(F)F)S(C)(=O)=O + CC(C)C[C@H](NC(=O)[C@H](Cc1ccccc1)NC(=O)c1cnccn1)B(O)O [Bortezomib] (partner 0.002 µM)
Procedure, shortened: as §1

NCI-H520
relative viability ([1]; first compound 0.01 µM): 0.285
relative viability ([1]; first compound 0.03162 µM): 0.386
relative viability ([1]; first compound 0.1 µM): 0.322
relative viability ([1]; first compound 0.3162 µM): 0.277
relative viability ([1]; first compound 1 µM): 0.379
relative viability ([2]; first compound 0.01 µM): 0.851
relative viability ([2]; first compound 0.03162 µM): 0.744
relative viability ([2]; first compound 0.1 µM): 0.723
relative viability ([2]; first compound 0.3162 µM): 0.839
relative viability ([2]; first compound 1 µM): 0.722
relative viability ([3]; first compound 0.01 µM): 0.27
relative viability ([3]; first compound 0.03162 µM): 0.209
relative viability ([3]; first compound 0.1 µM): 0.244
relative viability ([3]; first compound 0.3162 µM): 0.262
relative viability ([3]; first compound 1 µM): 0.24
relative viability ([4]; first compound 0.01 µM): 0.695
relative viability ([4]; first compound 0.03162 µM): 0.513
relative viability ([4]; first compound 0.1 µM): 0.489
relative viability ([4]; first compound 0.3162 µM): 1.13
relative viability ([4]; first compound 1 µM): 0.635

NCI-H647
relative viability ([1]; first compound 0.01 µM): 0.529
relative viability ([1]; first compound 0.03162 µM): 0.365
relative viability ([1]; first compound 0.1 µM): 0.38
relative viability ([1]; first compound 1 µM): 0.594
relative viability ([2]; first compound 0.01 µM): 1.18
relative viability ([2]; first compound 0.03162 µM): 1.04
relative viability ([2]; first compound 0.1 µM): 1.14
relative viability ([2]; first compound 0.3162 µM): 1.1
relative viability ([2]; first compound 1 µM): 1.22
relative viability ([3]; first compound 0.01 µM): 0.349
relative viability ([3]; first compound 0.03162 µM): 0.402
relative viability ([3]; first compound 0.1 µM): 0.319
relative viability ([3]; first compound 0.3162 µM): 0.367
relative viability ([3]; first compound 1 µM): 0.322
relative viability ([4]; first compound 0.01 µM): 0.934
relative viability ([4]; first compound 0.03162 µM): 1.52
relative viability ([4]; first compound 0.1 µM): 1.04
relative viability ([4]; first compound 0.3162 µM): 0.931
relative viability ([4]; first compound 1 µM): 0.886

NCI-H650
relative viability ([1]; first compound 0.01 µM): 0.961
relative viability ([1]; first compound 0.03162 µM): 1.15
relative viability ([1]; first compound 0.1 µM): 0.671
relative viability ([1]; first compound 0.3162 µM): 0.639
relative viability ([1]; first compound 1 µM): 0.842
relative viability ([2]; first compound 0.01 µM): 1.02
relative viability ([2]; first compound 0.03162 µM): 0.953
relative viability ([2]; first compound 0.1 µM): 0.935
relative viability ([2]; first compound 0.3162 µM): 0.796
relative viability ([2]; first compound 1 µM): 0.853
relative viability ([3]; first compound 0.01 µM): 0.324
relative viability ([3]; first compound 0.03162 µM): 0.32
relative viability ([3]; first compound 0.1 µM): 0.307
relative viability ([3]; first compound 0.3162 µM): 0.266
relative viability ([3]; first compound 1 µM): 0.3
relative viability ([4]; first compound 0.01 µM): 0.69
relative viability ([4]; first compound 0.03162 µM): 0.846
relative viability ([4]; first compound 0.1 µM): 0.843
relative viability ([4]; first compound 0.3162 µM): 0.692
relative viability ([4]; first compound 1 µM): 0.649

NCI-H661
relative viability ([1]; first compound 0.01 µM): 0.578
relative viability ([1]; first compound 0.03162 µM): 0.335
relative viability ([1]; first compound 0.1 µM): 0.405
relative viability ([1]; first compound 0.3162 µM): 0.378
relative viability ([1]; first compound 1 µM): 0.383
relative viability ([2]; first compound 0.01 µM): 1.01
relative viability ([2]; first compound 0.03162 µM): 1.04
relative viability ([2]; first compound 0.1 µM): 0.989
relative viability ([2]; first compound 0.3162 µM): 0.993
relative viability ([2]; first compound 1 µM): 0.92
relative viability ([3]; first compound 0.01 µM): 0.406
relative viability ([3]; first compound 0.03162 µM): 0.385
relative viability ([3]; first compound 0.1 µM): 0.429
relative viability ([3]; first compound 0.3162 µM): 0.383
relative viability ([3]; first compound 1 µM): 0.341
relative viability ([4]; first compound 0.01 µM): 0.928
relative viability ([4]; first compound 0.03162 µM): 1.06
relative viability ([4]; first compound 0.1 µM): 0.717
relative viability ([4]; first compound 0.3162 µM): 0.837
relative viability ([4]; first compound 1 µM): 1.04

NCI-H727
relative viability ([1]; first compound 0.01 µM): 0.459
relative viability ([1]; first compound 0.03162 µM): 0.269
relative viability ([1]; first compound 0.1 µM): 0.393
relative viability ([1]; first compound 0.3162 µM): 0.31
relative viability ([1]; first compound 1 µM): 0.344
relative viability ([2]; first compound 0.01 µM): 0.836
relative viability ([2]; first compound 0.03162 µM): 0.873
relative viability ([2]; first compound 0.1 µM): 0.932
relative viability ([2]; first compound 0.3162 µM): 1
relative viability ([2]; first compound 1 µM): 0.891
relative viability ([3]; first compound 0.01 µM): 0.681
relative viability ([3]; first compound 0.03162 µM): 0.607
relative viability ([3]; first compound 0.1 µM): 0.651
relative viability ([3]; first compound 0.3162 µM): 0.684
relative viability ([3]; first compound 1 µM): 0.688
relative viability ([4]; first compound 0.01 µM): 0.897
relative viability ([4]; first compound 0.03162 µM): 1
relative viability ([4]; first compound 0.1 µM): 0.73
relative viability ([4]; first compound 0.3162 µM): 0.765
relative viability ([4]; first compound 1 µM): 0.731

NCI-H838
relative viability ([1]; first compound 0.01 µM): 0.431
relative viability ([1]; first compound 0.03162 µM): 0.482
relative viability ([1]; first compound 0.1 µM): 0.471
relative viability ([1]; first compound 0.3162 µM): 0.448
relative viability ([1]; first compound 1 µM): 0.395
relative viability ([2]; first compound 0.01 µM): 1.01
relative viability ([2]; first compound 0.03162 µM): 1.06
relative viability ([2]; first compound 0.1 µM): 1.07
relative viability ([2]; first compound 0.3162 µM): 0.882
relative viability ([2]; first compound 1 µM): 0.718
relative viability ([3]; first compound 0.01 µM): 0.243
relative viability ([3]; first compound 0.03162 µM): 0.237
relative viability ([3]; first compound 0.1 µM): 0.211
relative viability ([3]; first compound 0.3162 µM): 0.204
relative viability ([3]; first compound 1 µM): 0.204
relative viability ([4]; first compound 0.01 µM): 0.767
relative viability ([4]; first compound 0.03162 µM): 0.923
relative viability ([4]; first compound 0.1 µM): 0.88
relative viability ([4]; first compound 0.3162 µM): 0.942
relative viability ([4]; first compound 1 µM): 0.598

NCI-H1355
relative viability ([1]; first compound 0.01 µM): 0.399
relative viability ([1]; first compound 0.03162 µM): 0.474
relative viability ([1]; first compound 0.1 µM): 0.346
relative viability ([1]; first compound 0.3162 µM): 0.432
relative viability ([1]; first compound 1 µM): 0.381
relative viability ([2]; first compound 0.01 µM): 0.937
relative viability ([2]; first compound 0.03162 µM): 1.01
relative viability ([2]; first compound 0.1 µM): 1
relative viability ([2]; first compound 0.3162 µM): 0.884
relative viability ([2]; first compound 1 µM): 0.907
relative viability ([3]; first compound 0.01 µM): 0.387
relative viability ([3]; first compound 0.03162 µM): 0.362
relative viability ([3]; first compound 0.1 µM): 0.407
relative viability ([3]; first compound 0.3162 µM): 0.418
relative viability ([3]; first compound 1 µM): 0.331
relative viability ([4]; first compound 0.01 µM): 1.29
relative viability ([4]; first compound 0.03162 µM): 1.28
relative viability ([4]; first compound 0.1 µM): 1.14
relative viability ([4]; first compound 0.3162 µM): 1.14
relative viability ([4]; first compound 1 µM): 1.07

NCI-H1437
relative viability ([1]; first compound 0.01 µM): 0.424
relative viability ([1]; first compound 0.03162 µM): 0.468
relative viability ([1]; first compound 0.1 µM): 0.557
relative viability ([1]; first compound 0.3162 µM): 0.41
relative viability ([1]; first compound 1 µM): 0.546
relative viability ([2]; first compound 0.01 µM): 1.31
relative viability ([2]; first compound 0.03162 µM): 1.2
relative viability ([2]; first compound 0.1 µM): 1.21
relative viability ([2]; first compound 0.3162 µM): 1.11
relative viability ([2]; first compound 1 µM): 0.988
relative viability ([3]; first compound 0.01 µM): 0.348
relative viability ([3]; first compound 0.03162 µM): 0.297
relative viability ([3]; first compound 0.1 µM): 0.265
relative viability ([3]; first compound 0.3162 µM): 0.269
relative viability ([3]; first compound 1 µM): 0.209
relative viability ([4]; first compound 0.01 µM): 0.612
relative viability ([4]; first compound 0.03162 µM): 0.462
relative viability ([4]; first compound 0.1 µM): 0.527
relative viability ([4]; first compound 0.3162 µM): 0.514
relative viability ([4]; first compound 1 µM): 0.405
